Structures are written as SMILES. Converted amounts (≈) assume the structure as drawn.

The source of these data is PMC6271239, “Synthesis and in Vitro Evaluation of New Nitro-Substituted Thiazolyl Hydrazone Derivatives as Anticandidal and Anticancer Agents” (Molecules, 2014).

Series [1] deals with Candida albicans (ATCC 10231). The experiment in a line: Anticandidal broth microdilution assay. The format is cell-based. The note with it: ATCC10231, RPMI, 37 °C, 24 h. The method, then: (§1) Anticandidal activity assay was performed against Candida albicans (ATCC 10231), Candida utilis (NRRLY 900), Candida tropicalis (NRRLY 12968), Candida krusei (NRRLY 7179), Candida parapsilosis (NRRLY 12696) and Candida glabrata (ATCC 2001) standard strains according to the CSLI method.
(§2) The minimum inhibitory concentration (MIC, µg/mL) values against pathogenic Candida strains were determined by a broth microdilution method using a 96-well plate format. Compounds 1–14 and fluconazole as a standard control were first dissolved in dimethyl sulfoxide (DMSO) (25%) at an initial concentration of 2000 µg/mL.
(§3) All Candida strains were inoculated on Potato Dextrose Agar (PDA) prior the experiments at 37 °C. After the incubation, sufficiently grown microorganisms were inoculated in sterile saline (0.85%), and then standardized according to the turbidity to 5 × 10^3 CFU (McFarland No: 0.5) per well in RPMI medium under sterile conditions. Serial dilutions were prepared in 100 µL RPMI medium with an equal amount of the test samples, and 100 µL each microorganism suspension was pipetted into each well and incubated at 37 °C for 24 h. Positive growth controls (to assess the presence of turbidity) were performed in wells without the test samples, whereas the negative growth control (medium) was also evaluated. MIC was deﬁned as the lowest concentration without any visible growth of the yeast when compared with the growth in the control plate. All experiments were performed in duplicate.

Series [2] concerns Candida glabrata (ATCC 2001). The experiment in a line: Anticandidal broth microdilution assay. The series is classed as cell-based. The note with it: Nakaseomyces glabratus, ATCC2001, RPMI, 37 °C, 24 h. The method, then: as §1, §2, §3
Series [3] relates to Candida krusei (NRRLY 7179). The experiment in a line: Anticandidal broth microdilution assay. The series is classed as cell-based. The note with it: Pichia kudriavzevii, RPMI, 37 °C, 24 h. The method, then:
as §1, §2, §3

Series [4] relates to Candida parapsilosis (NRRLY 12696). The experiment in a line: Anticandidal broth microdilution assay. The series is classed as cell-based. The note with it: Lodderomyces parapsilosis, RPMI, 37 °C, 24 h. The method, then: as §1, §2, §3
In series [5] the test system is Candida tropicalis (NRRLY 12968). The experiment in a line: Anticandidal broth microdilution assay. The format is cell-based. The note with it: RPMI, 37 °C, 24 h. The method, then:
as §1, §2, §3
On the technique in general: In broth dilution the organism is exposed to a series of concentrations in liquid medium.

For series [6], the system named is Candida utilis (NRRLY 900). The experiment in a line: Anticandidal broth microdilution assay. The note with it: Williopsis jadinii, RPMI, 37 °C, 24 h. The series is classed as cell-based. The method, then:
as §1, §2, §3

Series [7] concerns MCF-7 human breast adenocarcinoma cell line. The experiment in a line: MTT cytotoxicity assay. The format is cell-based. The note with it: Homo sapiens, MCF7, 24 h incubation, 3.9–500 µg/mL. The method, then:
(§4) The tetrazolium salt, MTT (3-(4,5-dimethylthiazol-2-yl)-2,5-diphenyltetrazolium bromide), is used to measure the metabolic activity of viable cells. Tetrazolium salts are reduced to formazan by mitochondrial succinate dehydrogenase, an enzyme which is only active in cells with an intact metabolism. The formazan can be quantified photometrically and it is in correlation with the number of viable cells. Cytotoxicity was tested using the MCF-7 human breast adenocarcinoma cell line and NIH/3T3 mouse embryonic fibroblast cell line. NIH/3T3 and MCF-7 cells were incubated in RPMI medium (Hyclone, Thermo Scientific, Logan, UT, USA) supplemented with fetal calf serum (Hyclone), 100 IU/mL penicillin and […] (Hyclone) at 37 °C in a humidified atmosphere of 95% air and 5% CO2. MCF-7 and NIH/3T3 cells were seeded at 10,000 cells into each well of 96-well plates. After 24 h of incubating period, the culture mediums were removed and compounds were added to culture medium at 3.9–500 µg/mL concentrations. After 24 h of incubation, cytotoxicity tests were performed using the MTT assay, which measures mitochondrial activity, in MCF-7 and NIH/3T3 cells. Firstly, 20 µL MTT solution (5 mg/mL MTT powder in PBS) was added to each well. After 3 h incubation period at 37 °C, 5% CO2, the contents of the wells were removed and 100 µL DMSO was added to each well. Then, OD of the plate was read at 570 nm. Inhibition% was calculated for each concentration of the compounds. IC50 values were estimated by non-linear regression analysis. Cisplatin was used as a positive control. Stock solutions of compounds were prepared in DMSO and further dilutions were made with fresh culture medium. All experiments were performed in duplicate.
On the technique in general: Formazan colour is commonly taken as a measure of viable cells.

Series [8] relates to NIH/3T3 mouse embryonic fibroblast cell line. The experiment in a line: MTT cytotoxicity assay. The series is classed as cell-based. The note with it: Mus musculus, NIH3T3, 24 h incubation, 3.9–500 µg/mL. The method, then:
as §4

The term MIC denotes the smallest concentration in the dilution series that meets the test's criterion for growth inhibition. By IC50 is commonly meant the point on the concentration scale where inhibition reaches its midpoint. Low readings indicate greater potency, high ones weaker potency. By melting point is commonly meant the temperature of the solid-liquid transition. `O=[N+]([O-])c1cc(Cl)ccc1-c1ccc(C=NNc2nc(-c3ccc(Br)cc3)cs2)o1` [Compound 12, 4-(4-Bromophenyl)-2-[2-((5-(4-chloro-2-nitrophenyl)furan-2-yl)methylene)hydrazinyl]thiazole] returned a melting point of 199 to 201 °C. 500 µg/mL (≈ 993 µM) was the least that counted as inhibitory in [1] (MIC). The compound also showed an MIC in [2] of 500 µg/mL (≈ 993 µM). The same compound yielded an MIC in [3] of 1000 µg/mL (≈ 1990 µM). Further, in series [4], the minimum inhibitory concentration (MIC) was found to be 500 µg/mL (≈ 993 µM). Besides, the minimum inhibitory concentration (MIC) in [5] came out at 1000 µg/mL (≈ 1990 µM). The compound also yielded an MIC in [6] of 1000 µg/mL (≈ 1990 µM). Half-maximal inhibition in series [7] (IC50) required 500 µg/mL (≈ 993 µM). In addition, the 50% inhibitory concentration (IC50) in [8] was greater than 500 µg/mL.

`Cc1ccc(-c2csc(NN=Cc3ccc(-c4ccc(Cl)cc4[N+](=O)[O-])o3)n2)cc1` [Compound 13, 2-[2-((5-(4-Chloro-2-nitrophenyl)furan-2-yl)methylene)hydrazinyl]-4-(p-tolyl)thiazole] displayed a melting point of 166 to 167 °C. Moreover, in series [1], it took 250 µg/mL (≈ 570 µM) to inhibit growth (MIC). In addition, inhibition of growth in series [2] (MIC) required 500 µg/mL (≈ 1140 µM). The same compound showed a minimal inhibitory concentration (MIC) in [3] of 500 µg/mL (≈ 1140 µM). Besides, inhibition of growth in series [4] (MIC) required 1000 µg/mL (≈ 2280 µM). The same compound displayed an MIC in series [5] of 500 µg/mL (≈ 1140 µM). Also, in series [6], the lowest concentration to inhibit growth (MIC) was 500 µg/mL (≈ 1140 µM). In addition, half-maximal inhibition in series [7] (IC50) was put at 500 µg/mL (≈ 1140 µM). Moreover, the concentration for half-maximal inhibition (IC50) in [8] is greater than 500 µg/mL.

With `COc1ccc(-c2csc(NN=Cc3ccc(-c4ccc(Cl)cc4[N+](=O)[O-])o3)n2)cc1` [Compound 14, 2-[2-((5-(4-Chloro-2-nitrophenyl)furan-2-yl)methylene)hydrazinyl]-4-(4-methoxyphenyl)thiazole], the melting point is 206 to 207 °C. The compound further showed an MIC in series [1] of 250 µg/mL (≈ 550 µM). In series [2], this compound gave an MIC of 500 µg/mL (≈ 1100 µM). In addition, the MIC in series [3] amounted to 500 µg/mL (≈ 1100 µM). In addition, it took 500 µg/mL (≈ 1100 µM) to inhibit growth in [4] (MIC). In addition, the minimal inhibitory concentration (MIC) in series [5] was 250 µg/mL (≈ 550 µM). Also, the MIC in series [6] was 250 µg/mL (≈ 550 µM). Besides, the half-inhibitory concentration (IC50) in [7] was greater than 500 µg/mL. Further, the IC50 in series [8] was greater than 500 µg/mL.
